We go through nine compounds from patent US7220751B2, “Quinazoline derivatives and drugs” (Nippon Shinyaku Co., Ltd., priority 2001, dated 2007).

Usually Ki stands for a dissociation constant, usually derived from enzyme kinetics or from competition with a known ligand.

One assay in a line: Mouse formalin test. It is filed as in vivo. The settings on record: male ddy mouse, 30 mg/kg subcutaneously 15 min before 1% formalin, mean. The procedure: A male ddy strain mouse (4 to 5 weeks old) was kept at a temperature of 21 to 25° C. and a humidity of 45 to 65% in a breeding room under the conditions of a constant lighting cycle (light: 12 hours, dark: 12 hours) while allowing the animal to access a feed and water ad libitum, whereby acclimatizing the animal over a period of 1 week or longer. Each 6 to 7 animals were assigned to each group.
After the mouse was acclimatized to an observation cage sufficiently, it was treated with a test compound, and then after 15 minutes 20 μl of 1% formalin solution was given subcutaneously to a hind limb. The test compound was dissolved in a saline, and immediately given to the mouse subcutaneously at the dose of 0.1 ml per 10 g body weight using a 27G needle. A control group received the physiological saline. The animals were returned to their observation cages, and examined for the duration of the aversive responses such as licking or biting the posterior limb using a stopwatch over a period of 30 minutes.
The significance of the difference was analyzed by the one-way layout analysis of variance between the control group and a treatment group followed by Dunnett's multiple comparison.

In assay [1] the target is T1, human nociceptin receptor (Homo sapiens, UniProt P41146).
T1 construct: expressed in transfected cells
T1 sequence (P41146 whole entry): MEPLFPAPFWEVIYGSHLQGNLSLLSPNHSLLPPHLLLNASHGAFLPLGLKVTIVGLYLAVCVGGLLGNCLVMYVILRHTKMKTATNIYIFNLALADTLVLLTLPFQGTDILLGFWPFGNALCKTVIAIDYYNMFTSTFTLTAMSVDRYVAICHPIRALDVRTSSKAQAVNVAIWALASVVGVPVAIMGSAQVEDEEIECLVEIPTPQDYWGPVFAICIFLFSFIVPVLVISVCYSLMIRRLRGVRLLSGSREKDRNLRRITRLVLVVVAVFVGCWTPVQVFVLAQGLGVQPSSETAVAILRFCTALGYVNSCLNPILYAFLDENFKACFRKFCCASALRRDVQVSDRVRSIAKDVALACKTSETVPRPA
The experiment in a line: Nociceptin receptor binding test ([3H]-nociceptin). The settings on record: membranes of human nociceptin receptor expressing cell; 0.08 nM [3H]-nociceptin; 25° C., 60 minutes. The procedure:
Nociceptin Receptor Binding Test
A suspension of cell membrane obtained from a human nociceptin receptor expressing cell was adjusted at a protein concentration of 5 to 10 μg/ml using a Tris-buffer solution [50 mM Tris-HCl (pH 7.8), 5 mM MgCl2, 1 mM EGTA, 0.1% BSA]. The solution was incubated with [^3H]-nociceptin (diluted at the final concentration of 0.08 nM using Tris-buffer) and a test compound at 25° C. for 60 minutes. The membrane was recovered using a cell harvester onto a glass fiber (GF) filter GF/B which had previously been treated with 0.3% polyethyleneimine (PEI), and then washed further 4 times with a washing solution[50 mM Tris-HCl (pH 7.8), 4° C.]. The filter was transferred into a counteing vial. Adequate amount of scintillator was added to the vial and the radioactivity was measured using a liquid scintillation counter. A non-specific binding was regarded as a binding of [^3H]-nociceptin in the presence of 10 μM nociceptin, and a specific binding was regarded as the difference between the total binding and the non-specific binding. Based on the % binding inhibition in the presence of the test compound, an IC50 value was determined, and used together with the Kd value of [^3H]-nociceptin for calculating the Ki value of the test compound.

A further assay addresses T2, human μ receptor (Homo sapiens, UniProt P35372).
T2 construct: purchased Receptor Biology, Inc
Put plainly: μ receptor binding test ([3H]-diprenorphine). The settings on record: human μ receptor expressing cell membrane preparation; 0.13 nM [3H]-diprenorphine; 25° C., 90 minutes; read-out: μ preceptor Ki. The procedure: A nociceptin receptor is a member of an opioid receptor family. An inventive compound was examined for its binding capacity to a μ receptor which is also a member of an opioid receptor family and which is involved in an analgesic effect and a dependency, and compared with the binding capacity to the nociceptin receptor.
A human μ receptor expressing cell membrane preparation (Receptor Biology, Inc) was adjusted at the protein concentration of 8.5 μg/ml using a Tris-buffer solution [50 mM Tris-HCl (pH 7.8), 5 mM MgCl2, 1 mM EGTA, 0.1% BSA]. The solution incubated with [^3H]-diprenorphine (diluted at the final concentration of 0.13 nM using Tris-buffer) and a test compound at 25° C. for 90 minutes. The membrane was recovered using a cell harvester onto a GF/B filter which had previously been treated with 0.3% PEI, and then washed further 4 times with a washing solution [50 mM Tris-HCl (pH 7.8), 4° C.]. The filter was transferred into a counting vial. Adequate amount of scintillator was added and the radioactivity was measured using a liquid scintillation counter. A non-specific binding was regarded as a binding of [^3H]-diprenorphine in the presence of 100 μM naloxone, and a specific binding was regarded as the difference between the total binding and the non-specific binding. Based on the % binding inhibition in the presence of the test compound, an IC50 value was determined, and used together with the Kd value of [^3H]-diprenorphine for calculating the Ki value of the test compound.

[2] abbreviates: 0~10 min after formalin treatment (phase 1).
Setting [3] is: 10~30 min after formalin treatment (phase 2).

Each structure is given as a SMILES string. Where a name gives a salt, the structure may show the parent alone. Marks after values point to notes of the source that are not given here.

T2 sequence (P35372 whole entry): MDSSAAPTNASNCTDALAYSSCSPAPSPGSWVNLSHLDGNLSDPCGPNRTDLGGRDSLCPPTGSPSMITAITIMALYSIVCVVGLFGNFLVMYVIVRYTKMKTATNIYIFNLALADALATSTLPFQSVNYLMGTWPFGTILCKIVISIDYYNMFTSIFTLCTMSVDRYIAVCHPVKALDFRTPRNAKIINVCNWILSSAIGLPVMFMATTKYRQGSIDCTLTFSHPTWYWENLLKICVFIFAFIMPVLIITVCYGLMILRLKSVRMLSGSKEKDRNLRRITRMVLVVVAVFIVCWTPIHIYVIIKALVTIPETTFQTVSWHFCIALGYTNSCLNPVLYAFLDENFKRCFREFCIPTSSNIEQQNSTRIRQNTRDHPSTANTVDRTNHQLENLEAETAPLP

As to `Cc1ccc2nc(C=Cc3ccccn3)nc(N[C@@H]3CC[C@H](N)C[C@@H]3C)c2c1` (relative stereo) [Example 1, cis-4-amino-cis-2-methyl-N-{6-methyl-2-[2-(2-pyridyl)ethenyl]quinazolin-4-yl}cyclohexylamine Trihydrochloride], the “Duration of the abersive response” value in “Mouse formalin test” (setting [2]) is 47.5** sec; in the assay “Mouse formalin test” (setting [3]), 74.5* sec. The inhibition constant Ki is 4 nM in assay [1] and 207 nM on human μ receptor.

As to `COc1ccc2nc(C=Cc3ccc(Cl)cc3)nc(N[C@H]3CCCC[C@H]3N)c2c1` (relative stereo) [Example 25, cis-2-[2-(4-chlorostyryl)-6-methoxyquinazolin-4-yl]aminocyclohexylamine dihydrochloride], the inhibition constant (Ki) in assay [1] turned out to be 110 nM; at human μ receptor, 204 nM.

`COc1ccc2nc(C=Cc3ccccn3)nc(N[C@@H]3CC[C@H](N)C[C@@H]3C)c2c1` (relative stereo) [Example 51, cis-4-amino-cis-2-methyl-N-{6-methoxy-2-[2-(2-pyridyl)ethenyl]quinazolin-4-yl}cyclohexylamine Trihydrochloride]: the values for the Ki (in assay [1]; on human μ receptor) were 6 nM and 206 nM, respectively.

`Cc1ccc2nc(C=Cc3ccc(Cl)cc3)nc(N[C@H]3CC[C@@H](N)CC3)c2c1` [Example 22, cis-4-[2-(4-chlorostyryl)-6-methylquinazolin-4-yl]aminocyclohexylamine dihydrochloride]: the inhibitory constant (Ki) was found to be 29 nM in assay [1] and 313 nM at human μ receptor.

In the case of `Cc1ccc2nc(C=Cc3ccccn3)nc(N[C@H]3CC[C@@H](N)CC3)c2c1.Cl.Cl.Cl` [Example 40, cis-4-{6-methyl-2-[2-(2-pyridyl)ethenyl]quinazolin-4-yl}aminocyclohexylamine Trihydrochloride], the results for the “Duration of the abersive response” value in the assay “Mouse formalin test” (setting [2]) and in the assay “Mouse formalin test” (setting [3]) were 64.5** sec and 77.6* sec, respectively. The Ki came to 18 nM in assay [1] and 288 nM at human μ receptor.

For `COc1ccc2nc(C=Cc3ccccn3)nc(N[C@H]3CC[C@@H](N)CC3)c2c1` [Example 44, cis-4-{6-methoxy-2-[2-(2-pyridyl)ethenyl]quinazolin-4-yl}aminocyclohexylamine Trihydrochloride], the Ki in assay [1] was determined as 23 nM; at human μ receptor, 492 nM.

`Cc1ccc2nc(C=Cc3cccc(C)n3)nc(NC3CCC(N)CC3C)c2c1.Cl.Cl.Cl` (stereo not drawn) [Example 52, cis-4-amino-cis-2-methyl-N-{6-methyl-2-[2-(6-methyl-2-pyridyl)ethenyl]quinazolin-4-yl}cyclohexylamine Trihydrochloride]: the “Duration of the abersive response” value in “Mouse formalin test” (setting [2]) was 79.4** sec; in the assay “Mouse formalin test” (setting [3]), 77.0** sec.

For the compound `Cc1ccc2nc(C=Cc3ccccn3)nc(N[C@@H]3CC[C@H](N)C[C@@H]3C)c2c1` [Example 57, (1R, 2S, 4S)-4-amino-2-methyl-N-{6-methyl-2-[2-(2-pyridyl)ethenyl]quinazolin-4-yl}cyclohexylamine Trihydrochloride], the Ki in assay [1] was found to be 42 nM; on human μ receptor, 284 nM.

Turning to `Cc1ccc2nc(C=Cc3ccccn3)nc(N[C@H]3CC[C@@H](N)C[C@H]3C)c2c1` [Example 58, (1S, 2R, 4R)-4-amino-2-methyl-N-{6-methyl-2-[2-(2-pyridyl)ethenyl]quinazolin-4-yl}cyclohexylamine Trihydrochloride], the Ki in assay [1] stood at 2 nM; at human μ receptor, 234 nM.
